Test [1] deals with 22AG (DNA, G4) AGGGTTAGGGTTAGGGTTAGGG
Nature of the test: photometric titration. To be noted: K+ 110 mM; K-phosphate buffer, pH 7.0, 5% v/v DMSO; compound 20 µM.

In test [2] the test system is c-kit (DNA, G4) AGGGAGGGCGCTGGGAGGAGGG
Nature of the test: photometric titration. To be noted: K+ 110 mM; K-phosphate buffer, pH 7.0, 5% v/v DMSO; compound 20 µM.

Test [3] deals with a2 (DNA, G4) ACAGGGGTGTGGGGACAGGGGTGTGGGG
Nature of the test: photometric titration. To be noted: K+ 110 mM; K-phosphate buffer, pH 7.0, 5% v/v DMSO; compound 20 µM.

Test [4] concerns c-myc (DNA, G4) TGAGGGTGGGTAGGGTGGGTA
In words: photometric titration. The note with it: K+ 110 mM; K-phosphate buffer, pH 7.0, 5% v/v DMSO; compound 20 µM.

Test [5] has as its system FmycT (DNA, G4) TGAGGGTGGGTAGGGTGGGTA
In words: FRET melting (fluorescence). The note with it: K+ 10 mM, Na+ 10 mM, Li+ 90 mM; cacodylate, pH 7.0; ligand:DNA ratio 5; DNA 0.2 µM (Figure S6; Table 2 prints 0.2 mM); error ±0.5 °C.

Test [6] has as its system FkitT (DNA, G4) AGGGAGGGCGCTGGGAGGAGGG
In words: FRET melting (fluorescence). The note with it: K+ 10 mM, Na+ 10 mM, Li+ 90 mM; cacodylate, pH 7.0; ligand:DNA ratio 5; DNA 0.2 µM (Figure S6; Table 2 prints 0.2 mM); error ±0.5 °C.

This note sets out measurements from article PMC8124163 (2021).

In the case of `COc1ccc2cc3[n+](cc2c1OP(=O)(O)O)CCc1cc2c(cc1-3)OCO2`, the Kb in test [1] was 5.0 ± 0.6 × 10^5 M^-1; in test [2], 6.9 ± 0.2 × 10^5 M^-1; in test [3], 6.7 ± 0.2 × 10^5 M^-1; in test [4] it was 5.9 ± 0.4 × 10^5 M^-1. Besides, the “∆Tm” value in test [5] turned out to be 2.2 °C; in test [6] it was 1.0 °C.
